The test system of assay [1] is collagen-induced arthritis in mice. Put plainly: In vivo CIA model (collagen-induced mouse arthritis). Details: species or system DBA/1 mice. The note with it: for total pathological score (two hind limbs, HE staining): Mean±SEM. The text has this: The collagen-induced mouse arthritis model is an animal model for evaluating the therapeutic effect of drug treatment for psoriatic arthritis, of which pathogenesis and symptoms are obviously related to psoriatic arthritis. The model activated the reactivity of B cells and T cells to collagen by the injection of type II collagen. The activated B cells and T cells were attracted to the joints to cause the inflammation, thereby triggering a series of symptoms related to human psoriatic arthritis, such as redness and swelling of the joints, articular cartilage, joint capsule damage and other symptoms. Collagen-induced mouse arthritis is often used to evaluate the therapeutic effect during preclinical evaluation of candidate compounds for the medication for treating psoriatic arthritis.
The purpose of the experiment was to examine the therapeutic effect of the compound WX063 of embodiment 63 on collagen-induced arthritis in mice, thereby providing the preclinical pharmacodynamics information for subsequent clinical studies.
Mice were randomly divided into different treatment groups. The first immunization day is recorded as Day 0, and the following days were recorded in order.
After the DBA/1 mice were anesthetized with isoflurane, the prepared collagen emulsion was subcutaneously injected into the tail.
On Day 23, 100 μL of LPS solution was administered intraperitoneally.
On day 27, as the mean clinical score reached about 1 point, 60 mice with moderate disease were selected and re-randomized according to body weight and score, with 10 mice per group.
Dexamethasone as a positive control drug was administered at a dose of 0.3 mg/kg, which was common in the CIA model. […] It was administered once a day for a total of 11 days. The volume of the intragastric administration was 10 mL/kg.
Clinical observation: From Day 7 before immunization to Day 23 after immunization, the basic health status and the body weight changes of the DBA/1 mice were observed daily (recorded once a week). After Day 23, the health status, the arthritis incidence and the body weight changes of the mice were observed daily (recorded at least three times a week) until the end of the experiment.
Clinical score: After LPS injection, the arthritis incidence of mice was observed daily. As the clinical symptoms of arthritis occurred, the degree of disease was scored according to the standards of 0-4 (redness, joint deformation) at least three times a week, wherein the highest score for each limb was 4 points, and the highest score for each animal was 16 points. […].
Pathology: On day 38, the mice were euthanized. The hind limbs of the mice were taken, soaked in the 10% formalin solution, decalcified with formic acid solution, embedded in paraffin, sectioned, and stained with hematoxylin-eosin and photographed by microscopy. The degree of joint damage was evaluated from four aspects: inflammatory cell infiltration, formation of […], cartilage damage and bone resorption, and scored according to the standards of 0-4.
The experimental data were expressed as mean value±standard error of mean (Mean±SEM). The body weight and the clinical scores were analyzed by double factor variance (two-way ANOVA). Pathological scores and AUC were tested by T test. p<0.05 was considered as significant difference.

Another assay deals with Recombinant human PDE4B (Homo sapiens (Human), UniProt Q07343). Put plainly: Inhibitory activity against PDE 4B in vitro (fluorescence polarization, Transcreener AMP2/GMP2). It counts as biochemical. The settings on record: 1 μM cAMP. The method, then: Inhibitory activity of the compounds against PDE 4B
The enzyme activity was indicated by measuring the AMP/GMP expression and tracing AMP/GMP antibody binding based on fluorescence polarization in the biological assay.
10 mM Tris-HCl (pH 7.5), 5 mM MgCl2, 0.01% Brij 35, 1 mM DTT and 1% DMSO.
Recombinant human PDE4B (Gen accession number: NM_002600; amino acid 305 end) was expressed by baculovirus in Sf9 insect cells using an N-terminal GST tag. MW=78 kDa.
Transcreener® AMP2/GMP2 antibody and AMP2/GMP2 AlexaFluor633 tracer
i) Recombinant human PDE4B and the enzyme substrate (1 μM cAMP) were dissolved in the newly-prepared buffer solution, respectively.
ii) The PDE4B buffer solution defined as above was transferred into the reaction wells.
iii) The compound which was dissolved in 100% DMSO was added to the reaction wells of the PDE4B buffer solution by ultrasonic oscillator (echo 550; nanoliter range) and incubated at room temperature for 10 minutes.
iv) The enzymatic buffer solution was then added to the reaction wells defined as above to initiate the reaction.
v) The reaction was incubated at room temperature for 1 hour.
vi) The reaction was terminated by adding detecting mixture (Transcreener® AMP2/GMP2 antibody and AMP2/GMP2 AlexaFluor633 tracer) and incubated for 90 minutes with slowly mixing. The measurement range of fluorescence polarization is Ex/Em=620/688.
The fluorescence polarization signal was converted into nM according to the AMP/GMP standard curve and the percent enzyme activity relative to DMSO calculated by Excel. GraphPad Prism was used to plot the curves (Drawing Medicine Icon).
(In general: In fluorescence polarisation assays a small probe gives low polarisation when free and higher when bound to something large.)

Assay [2] relates to LPS-induced TNFα from the peripheral monocytes of human. Put plainly: Inhibitory effect against LPS-induced TNFα in hPBMC in vitro (ELISA). The settings on record: Monocyte, TNFα in supernatant, 24 hours. It counts as cell-based. The method, then:
Inhibitory activity of the compounds against the LPS-induced TNFα from the peripheral monocytes of human.
1. Whole blood in normal human was collected and EDTA-K2 was used as anticoagulant.
2. PBMC was isolated by Ficoll density gradient centrifugation. The concentration of the cells was adjusted to 2×10^6/mL.
3. 2×10^5 of cells were seed in per well of the 96-well U-bottom plate, followed by the addition of 200 μL/well of LPS with 1 ng/mL and 200 μL/per well of the compound with different concentration: […], 100 pM and 10 pM, with two duplicates of each concentration.
4. The reaction was incubated for 24 hours and the supernatant was collected.
5. ELISA was used to detect the level of TNFα in the supernatant and Graphpad Prism software was used to plot the inhibition curve and calculate the value of IC50.
(In an ELISA, binding on a coated surface is turned into a signal by an enzyme label.)

Sequence of Recombinant human PDE4B (Q07343 305-736 limits assumed): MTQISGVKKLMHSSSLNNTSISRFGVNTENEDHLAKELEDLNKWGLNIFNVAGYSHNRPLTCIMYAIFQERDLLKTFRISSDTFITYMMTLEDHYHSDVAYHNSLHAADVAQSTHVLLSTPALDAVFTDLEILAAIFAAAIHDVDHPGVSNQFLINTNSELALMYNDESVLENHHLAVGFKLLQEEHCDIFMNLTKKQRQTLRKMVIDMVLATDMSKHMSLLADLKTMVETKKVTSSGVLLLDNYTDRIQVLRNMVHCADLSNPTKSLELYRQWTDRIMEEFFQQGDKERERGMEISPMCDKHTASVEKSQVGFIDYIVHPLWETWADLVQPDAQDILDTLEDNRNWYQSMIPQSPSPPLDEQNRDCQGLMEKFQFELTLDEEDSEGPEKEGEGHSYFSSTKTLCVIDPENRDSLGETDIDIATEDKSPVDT

For `CCOc1cc([C@@H](CS(C)(=O)=O)N2C(=O)c3cccc(NC(C)=O)c3C2=O)ccc1OC` [Apremilast, reference compound], the mean clinical score in assay [1] (5 mg/kg intragastric once a day, Day 37) worked out at 4.2 points. For the same molecule, in assay [1] (5 mg/kg, Day 37), the “mean clinical score lower compared with the vehicle control group” value is given as 3.7 points. In addition, the “total pathological score (two hind limbs, HE staining)” value in assay [1] (5 mg/kg) is reported as 13.90±1.89.

Consider `C[C@@H]1C[C@H]2[C@@H]3CCC4=CC(=O)C=C[C@]4(C)[C@@]3(F)[C@@H](O)C[C@]2(C)[C@@]1(O)C(=O)CO` [Dexamethasone, reference compound], for which the “percentage inhibition of clinical score AUC relative to the vehicle control group” value in assay [1] (0.3 mg/kg) amounted to 96.4%. This molecule yielded a clinical score in assay [1] (0.3 mg/kg intragastric once a day, Day 30 and maintained to the end of the trial) of 0 points.

By IC50 is commonly meant the midpoint of a concentration-inhibition curve. As for `CCOc1cc([C@@H](CS(C)(=O)=O)n2c(=O)n(C)c3cc(-c4ccccc4F)cnc32)ccc1OC` [WX057], the IC50 on Recombinant human PDE4B is 1.25 nM; in assay [2], 3.4 nM.

In the case of `CCOc1cc([C@@H](CS(C)(=O)=O)n2c(=O)[nH]c3c(C)c(-c4ccccc4F)cnc32)ccc1OC` [WX063], the IC50 at Recombinant human PDE4B worked out at 0.685 nM; in assay [2] it was 0.56 nM. In addition, the results for the “percentage inhibition of clinical score AUC relative to the vehicle control group” value in assay [1] (0.3 mg/kg), in assay [1] (1 mg/kg) and in assay [1] (3 mg/kg) were 43.9%, 39.4% and 51.7%, respectively. The mean clinical score in assay [1] (0.3 mg/kg intragastric once a day, Day 37) stood at 3.6 points; in assay [1] (1 mg/kg intragastric once a day, Day 37) it was 4.3 points; in assay [1] (3 mg/kg intragastric once a day, Day 37), 3.5 points. Besides, the “total pathological score (two hind limbs, HE staining)” value was 14.00±2.43 in assay [1] (1 mg/kg) and 9.20±1.83 in assay [1] (3 mg/kg). Besides, the “therapeutic effect (clinical score and arthritis pathology score) versus Apremilast 5 mg/kg (in words)” value in assay [1] (3 mg/kg) is listed as “better than the one of Apremilast”. Further, the “treatment of collagen-induced arthritis and pathological changes of arthritis (in words)” value in assay [1] (doses of 0.3, 1 and 3 mg/kg) is “significant improvement”.

With `CCOc1cc([C@@H](CS(C)(=O)=O)n2c(=O)[nH]c3c(-c4ccccc4F)ccnc32)ccc1OC` [WX065], the results for the concentration for half-maximal inhibition (IC50) (on Recombinant human PDE4B; in assay [2]) were 1.87 nM and 8.8 nM, respectively.

For the molecule `CCOc1cc([C@@H](CS(C)(=O)=O)n2c(=O)[nH]c3c(-c4ccccc4)ccnc32)ccc1OC` [WX066], the IC50 at Recombinant human PDE4B came out at 2.48 nM; in assay [2], 3.8 nM.

`CCOc1cc([C@@H](CS(C)(=O)=O)n2c(=O)[nH]c3c(-c4cnn(C)c4)ccnc32)ccc1OC` [WX067]: the IC50 was 18.5 nM on Recombinant human PDE4B and 6.4 nM in assay [2].

For the origin of these results see patent US10662189B2, “PDE4 inhibitor” (SHIJIAZHUANG SAGACITY NEW DRUG DEVELOPMENT CO., LTD., priority 2016, dated 2020).
